Experimental data reported in doi:10.1101/2021.07.02.450968v1 (biorxiv, 2021).

What follows are compounds tested against T1, FABP1 (liver, L-FABP) (Homo sapiens, UniProt P07148) (assay: fluorescence polarisation competition vs BODIPY C4,C9). Details: not given.
T1 sequence (P07148 1-127): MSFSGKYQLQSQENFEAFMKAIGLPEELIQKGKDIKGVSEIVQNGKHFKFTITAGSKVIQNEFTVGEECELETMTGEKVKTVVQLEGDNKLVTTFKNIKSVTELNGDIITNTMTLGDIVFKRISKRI
Type: binding

| SMILES | Ki [µM] |
| --- | --- |
| C[C@@H]1C[C@H]2[C@@H]3CCC4=CC(=O)C=C[C@]4(C)[C@@]3(F)[C@@H](O)C[C@]2(C)[C@@]1(O)C(=O)CO [Dexamethasone] | 27.5 |
| CCCC1O[C@@H]2C[C@H]3[C@@H]4CCC5=CC(=O)C=C[C@]5(C)[C@H]4[C@@H](O)C[C@]3(C)[C@]2(C(=O)CO)O1 (stereo partly drawn) [Budesonide] | 85.1 |
| C[C@H]1C[C@H]2[C@@H]3CCC4=CC(=O)C=C[C@]4(C)[C@@]3(F)[C@@H](O)C[C@]2(C)[C@@]1(O)C(=O)CO [β-methasone] | 91.2 |
| C[C@]12CCC(=O)C=C1CC[C@@H]1[C@@H]2C(=O)C[C@@]2(C)[C@H]1CC[C@]2(O)C(=O)CO [Cortisone] | 302 |
| C[C@]12C=CC(=O)C=C1CC[C@@H]1[C@@H]2C(=O)C[C@@]2(C)[C@H]1CC[C@]2(O)C(=O)CO [Prednisone] | 288 |

Results, then the compound that gave them:

| Ki [µM] | SMILES |
| --- | --- |
| 79.4 | C[C@H]1C[C@@H]2[C@H]([C@@H](O)C[C@@]3(C)[C@H]2CC[C@]3(O)C(=O)CO)[C@@]2(C)C=CC(=O)C=C12 [Methylprednisolone] |
| 47.9 | C[C@]12C=CC(=O)C=C1CC[C@@H]1[C@@H]2[C@@H](O)C[C@@]2(C)[C@H]1CC[C@]2(O)C(=O)CO [Prednisolone] |
| 38.9 | C[C@]12CCC(=O)C=C1CC[C@@H]1[C@@H]2[C@@H](O)C[C@@]2(C)[C@H]1CC[C@]2(O)C(=O)CO [Hydrocortisone] |

The compounds below were run against T2, GR (α sub-type) (Homo sapiens, UniProt P04150) (assay: GRE-SEAP reporter gene assay, COS-7). Details: 24 h agonist treatment; nominal EC80 concentration from reporter curves.
T2 sequence (P04150 1-777): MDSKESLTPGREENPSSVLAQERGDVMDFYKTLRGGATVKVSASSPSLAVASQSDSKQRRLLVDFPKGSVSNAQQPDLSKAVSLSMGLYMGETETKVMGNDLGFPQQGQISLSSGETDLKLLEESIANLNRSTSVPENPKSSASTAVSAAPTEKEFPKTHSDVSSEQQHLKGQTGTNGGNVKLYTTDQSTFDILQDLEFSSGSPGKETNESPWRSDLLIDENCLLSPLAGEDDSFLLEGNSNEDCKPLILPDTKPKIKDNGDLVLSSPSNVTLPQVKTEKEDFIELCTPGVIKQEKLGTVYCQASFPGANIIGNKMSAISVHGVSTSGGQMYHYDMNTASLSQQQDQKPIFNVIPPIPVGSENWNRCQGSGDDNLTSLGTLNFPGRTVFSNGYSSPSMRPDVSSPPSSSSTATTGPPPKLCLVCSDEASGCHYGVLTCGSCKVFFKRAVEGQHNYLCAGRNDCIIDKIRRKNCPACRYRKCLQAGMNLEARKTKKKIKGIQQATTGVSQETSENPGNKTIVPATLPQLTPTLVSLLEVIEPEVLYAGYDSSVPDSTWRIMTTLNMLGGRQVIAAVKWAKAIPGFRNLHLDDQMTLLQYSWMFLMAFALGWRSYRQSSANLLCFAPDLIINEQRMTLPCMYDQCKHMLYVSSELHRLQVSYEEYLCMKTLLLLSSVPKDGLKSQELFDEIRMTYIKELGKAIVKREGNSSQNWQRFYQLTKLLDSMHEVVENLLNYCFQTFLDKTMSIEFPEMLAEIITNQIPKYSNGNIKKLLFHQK
Type: cell-based

| SMILES | EC80 |
| --- | --- |
| C[C@@H]1C[C@H]2[C@@H]3CCC4=CC(=O)C=C[C@]4(C)[C@@]3(F)[C@@H](O)C[C@]2(C)[C@@]1(O)C(=O)CO [Dexamethasone] | ~ 10 μM |
| CCCC1O[C@@H]2C[C@H]3[C@@H]4CCC5=CC(=O)C=C[C@]5(C)[C@H]4[C@@H](O)C[C@]3(C)[C@]2(C(=O)CO)O1 (stereo partly drawn) [Budesonide] | ~ 10 μM |
| C[C@H]1C[C@H]2[C@@H]3CCC4=CC(=O)C=C[C@]4(C)[C@@]3(F)[C@@H](O)C[C@]2(C)[C@@]1(O)C(=O)CO [β-methasone] | ~ 10 μM |

Second part, the compound after the results:

| EC80 | SMILES |
| --- | --- |
| ~ 100 μM | C[C@]12C=CC(=O)C=C1CC[C@@H]1[C@@H]2[C@@H](O)C[C@@]2(C)[C@H]1CC[C@]2(O)C(=O)CO [Prednisolone] |
| ~ 1 mM | C[C@]12CCC(=O)C=C1CC[C@@H]1[C@@H]2[C@@H](O)C[C@@]2(C)[C@H]1CC[C@]2(O)C(=O)CO [Hydrocortisone] |

Each compound was assayed against T1, FABP1 (liver, L-FABP) (assay: fluorescence polarisation saturation binding). Details: not given.

| Kd [µM] | SMILES |
| --- | --- |
| 0.09 | CCCCc1ccc2n1[B-](F)(F)[N+]1=C(CCCCCCCCC(=O)O)C=CC1=C2 [BODIPY 500/510 C4, C9] |

The compounds below were run against T3, FABP3 (heart, H-FABP) (Homo sapiens, UniProt P05413) (assay: fluorescence polarisation competition vs BODIPY C4,C9). Details: not given.
Type: binding

T3 sequence (P05413 whole entry): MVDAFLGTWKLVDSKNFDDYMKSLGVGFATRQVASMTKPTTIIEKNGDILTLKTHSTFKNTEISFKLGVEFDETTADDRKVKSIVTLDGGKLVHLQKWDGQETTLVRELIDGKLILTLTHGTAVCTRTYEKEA

| SMILES | Ki [µM] |
| --- | --- |
| C[C@@H]1C[C@H]2[C@@H]3CCC4=CC(=O)C=C[C@]4(C)[C@@]3(F)[C@@H](O)C[C@]2(C)[C@@]1(O)C(=O)CO [Dexamethasone] | 5.62 |
| CCCC1O[C@@H]2C[C@H]3[C@@H]4CCC5=CC(=O)C=C[C@]5(C)[C@H]4[C@@H](O)C[C@]3(C)[C@]2(C(=O)CO)O1 (stereo partly drawn) [Budesonide] | 0.0575 |
| C[C@]12CCC(=O)C=C1CC[C@@H]1[C@@H]2C(=O)C[C@@]2(C)[C@H]1CC[C@]2(O)C(=O)CO [Cortisone] | 107 |
| C[C@]12C=CC(=O)C=C1CC[C@@H]1[C@@H]2C(=O)C[C@@]2(C)[C@H]1CC[C@]2(O)C(=O)CO [Prednisone] | 7.59 |

Further lines, results first:

| Ki [µM] | SMILES |
| --- | --- |
| 117 | C[C@H]1C[C@@H]2[C@H]([C@@H](O)C[C@@]3(C)[C@H]2CC[C@]3(O)C(=O)CO)[C@@]2(C)C=CC(=O)C=C12 [Methylprednisolone] |
| 70.8 | C[C@]12C=CC(=O)C=C1CC[C@@H]1[C@@H]2[C@@H](O)C[C@@]2(C)[C@H]1CC[C@]2(O)C(=O)CO [Prednisolone] |
| 7.76 | C[C@]12CCC(=O)C=C1CC[C@@H]1[C@@H]2[C@@H](O)C[C@@]2(C)[C@H]1CC[C@]2(O)C(=O)CO [Hydrocortisone] |

What follows are compounds tested against T4, FABP4 (adipocyte, A-FABP) (Homo sapiens, UniProt P15090) (assay: fluorescence polarisation saturation binding). Details: not given.
T4 sequence (P15090 whole entry): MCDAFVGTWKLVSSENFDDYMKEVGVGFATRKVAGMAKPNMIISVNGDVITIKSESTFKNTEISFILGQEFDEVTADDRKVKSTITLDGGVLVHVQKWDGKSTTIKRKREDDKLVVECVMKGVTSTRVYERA

| Kd [µM] | SMILES |
| --- | --- |
| 0.42 | CCCCc1ccc2n1[B-](F)(F)[N+]1=C(CCCCCCCCC(=O)O)C=CC1=C2 [BODIPY 500/510 C4, C9] |

The compounds below were run against T5, FABP2 (intestine, I-FABP) (Homo sapiens, UniProt P12104) (assay: fluorescence polarisation competition vs BODIPY C4,C9). Details: not given.
T5 sequence (P12104 2-132): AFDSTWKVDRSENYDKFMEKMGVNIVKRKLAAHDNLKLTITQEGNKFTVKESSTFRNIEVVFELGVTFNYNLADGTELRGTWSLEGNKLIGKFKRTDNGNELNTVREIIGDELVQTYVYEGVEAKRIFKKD
Type: binding

| SMILES | Ki [µM] |
| --- | --- |
| C[C@H]1C[C@H]2[C@@H]3CCC4=CC(=O)C=C[C@]4(C)[C@@]3(F)[C@@H](O)C[C@]2(C)[C@@]1(O)C(=O)CO [β-methasone] | 72.4 |
| C[C@]12CCC(=O)C=C1CC[C@@H]1[C@@H]2C(=O)C[C@@]2(C)[C@H]1CC[C@]2(O)C(=O)CO [Cortisone] | 16.6 |

The remaining lines, values ahead:

| Ki [µM] | SMILES |
| --- | --- |
| 3.39 | C[C@H]1C[C@@H]2[C@H]([C@@H](O)C[C@@]3(C)[C@H]2CC[C@]3(O)C(=O)CO)[C@@]2(C)C=CC(=O)C=C12 [Methylprednisolone] |
| 11 | C[C@]12C=CC(=O)C=C1CC[C@@H]1[C@@H]2[C@@H](O)C[C@@]2(C)[C@H]1CC[C@]2(O)C(=O)CO [Prednisolone] |

The compounds below were run against T6, FABP5 (brain, B-FABP or epidermal, E-FABP) (Homo sapiens, UniProt Q01469) in the same assay as above. Details: not given.
Type: binding

T6 sequence (Q01469 2-135): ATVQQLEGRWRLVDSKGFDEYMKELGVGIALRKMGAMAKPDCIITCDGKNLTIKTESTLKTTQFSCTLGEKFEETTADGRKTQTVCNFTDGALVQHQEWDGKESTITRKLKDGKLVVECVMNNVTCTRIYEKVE

| Ki [µM] | SMILES |
| --- | --- |
| 21.9 | C[C@]12CCC(=O)C=C1CC[C@@H]1[C@@H]2[C@@H](O)C[C@@]2(C)[C@H]1CC[C@]2(O)C(=O)CO [Hydrocortisone] |
| 19.1 | CCCC1O[C@@H]2C[C@H]3[C@@H]4CCC5=CC(=O)C=C[C@]5(C)[C@H]4[C@@H](O)C[C@]3(C)[C@]2(C(=O)CO)O1 (stereo partly drawn) [Budesonide] |
| 129 | C[C@]12CCC(=O)C=C1CC[C@@H]1[C@@H]2C(=O)C[C@@]2(C)[C@H]1CC[C@]2(O)C(=O)CO [Cortisone] |
| 9.33 | C[C@]12C=CC(=O)C=C1CC[C@@H]1[C@@H]2C(=O)C[C@@]2(C)[C@H]1CC[C@]2(O)C(=O)CO [Prednisone] |

The compounds below were run against T4, FABP4 (adipocyte, A-FABP) in the same assay as above. Details: not given.
Type: binding

| SMILES | Ki [µM] |
| --- | --- |
| C[C@@H]1C[C@H]2[C@@H]3CCC4=CC(=O)C=C[C@]4(C)[C@@]3(F)[C@@H](O)C[C@]2(C)[C@@]1(O)C(=O)CO [Dexamethasone] | 74.1 |
| C[C@]12CCC(=O)C=C1CC[C@@H]1[C@@H]2C(=O)C[C@@]2(C)[C@H]1CC[C@]2(O)C(=O)CO [Cortisone] | 977 |
| C[C@]12C=CC(=O)C=C1CC[C@@H]1[C@@H]2C(=O)C[C@@]2(C)[C@H]1CC[C@]2(O)C(=O)CO [Prednisone] | 35.5 |

More lines, now with the values ahead:

| Ki [µM] | SMILES |
| --- | --- |
| 2000 | C[C@H]1C[C@@H]2[C@H]([C@@H](O)C[C@@]3(C)[C@H]2CC[C@]3(O)C(=O)CO)[C@@]2(C)C=CC(=O)C=C12 [Methylprednisolone] |
| 1150 | C[C@]12C=CC(=O)C=C1CC[C@@H]1[C@@H]2[C@@H](O)C[C@@]2(C)[C@H]1CC[C@]2(O)C(=O)CO [Prednisolone] |
| 120 | C[C@]12CCC(=O)C=C1CC[C@@H]1[C@@H]2[C@@H](O)C[C@@]2(C)[C@H]1CC[C@]2(O)C(=O)CO [Hydrocortisone] |

The compounds below were run against T5, FABP2 (intestine, I-FABP) (assay: fluorescence polarisation saturation binding). Details: not given.

| Kd [µM] | SMILES |
| --- | --- |
| 4.1 | CCCCc1ccc2n1[B-](F)(F)[N+]1=C(CCCCCCCCC(=O)O)C=CC1=C2 [BODIPY 500/510 C4, C9] |

What follows are compounds tested against T3, FABP3 (heart, H-FABP) (assay: fluorescence polarisation saturation binding). Details: not given.

| Kd [µM] | SMILES |
| --- | --- |
| 0.02 | CCCCc1ccc2n1[B-](F)(F)[N+]1=C(CCCCCCCCC(=O)O)C=CC1=C2 [BODIPY 500/510 C4, C9] |

These compounds were tested against T6, FABP5 (brain, B-FABP or epidermal, E-FABP) (assay: fluorescence polarisation saturation binding). Details: not given.

| Kd [µM] | SMILES |
| --- | --- |
| 0.16 | CCCCc1ccc2n1[B-](F)(F)[N+]1=C(CCCCCCCCC(=O)O)C=CC1=C2 [BODIPY 500/510 C4, C9] |
